Data as given in PMC5218480 (PLoS ONE, 2017).

Test system: MV-4-11 cells
Test: Gene expression microarray analysis (Affymetrix PrimeView) and GSEA
Format: cell-based, human
Design: RFU PODN (11730768_x_at) / Fold change /veh PODN (11730768_x_at) / RFU LINC00158 (11744669_a_at) / Fold change /veh LINC00158 (11744669_a_at) / RFU DUSP10 (11751237_a_at) / Fold change /veh DUSP10 (11751237_a_at) / RFU ID3 (11757404_x_at) / Fold change /veh ID3 (11757404_x_at) / RFU PLEKHG5 (11737974_s_at) / Fold change /veh PLEKHG5 (11737974_s_at) / RFU LRRC4B (11730491_at) / Fold change /veh LRRC4B (11730491_at) / RFU GIMAP4 (11747438_a_at) / Fold change /veh GIMAP4 (11747438_a_at) / RFU KRT8 (11758183_x_at) / Fold change /veh KRT8 (11758183_x_at) / RFU CNN1 (11734310_a_at) / Fold change /veh CNN1 (11734310_a_at) / RFU VPS37D (11726825_at) / Fold change /veh VPS37D (11726825_at) / RFU C10orf10 (11716522_x_at) / Fold change /veh C10orf10 (11716522_x_at) / RFU KIR2DL2 /// KIR2DL4 /// KIR2DL5A /// KIR2DL5B /// KIR2DS1 /// KIR2DS2 /// KIR2DS3 /// KIR2DS4 /// KIR3DL3 /// KIR3DL3 /// KIR3DS1 (11738374_at) / Fold change /veh KIR2DL2 /// KIR2DL4 /// KIR2DL5A /// KIR2DL5B /// KIR2DS1 /// KIR2DS2 /// KIR2DS3 /// KIR2DS4 /// KIR3DL3 /// KIR3DL3 /// KIR3DS1 (11738374_at) / RFU C1QL1 (11718748_at) / Fold change /veh C1QL1 (11718748_at) / RFU TMPRSS4 (11747572_a_at) / Fold change /veh TMPRSS4 (11747572_a_at) / RFU HAMP (11756126_x_at) / Fold change /veh HAMP (11756126_x_at) / RFU RNFT2 (11725882_a_at) / Fold change /veh RNFT2 (11725882_a_at) / RFU NR4A2 (11747474_a_at) / Fold change /veh NR4A2 (11747474_a_at) / RFU ABCC12 (11746883_a_at) / Fold change /veh ABCC12 (11746883_a_at) / RFU TMEM136 (11760407_x_at) / Fold change /veh TMEM136 (11760407_x_at) / RFU CLDN22 /// WWC2 (11732394_at) / Fold change /veh CLDN22 /// WWC2 (11732394_at) / RFU HLA-DPB1 (11760878_x_at) / Fold change /veh HLA-DPB1 (11760878_x_at) / RFU SPINT1 (11716480_a_at) / Fold change /veh SPINT1 (11716480_a_at) / RFU GAP43 (11754022_s_at) / Fold change /veh GAP43 (11754022_s_at) / RFU A4GNT (11735810_at) / Fold change /veh A4GNT (11735810_at) / RFU PRB3 (11715151_x_at) / Fold change /veh PRB3 (11715151_x_at) / RFU TUBB4B (11761932_at) / Fold change /veh TUBB4B (11761932_at) / RFU CAPN14 (11732068_a_at) / Fold change /veh CAPN14 (11732068_a_at) / RFU TMCC2 (11721928_a_at) / Fold change /veh TMCC2 (11721928_a_at) / RFU IRGQ (11745062_a_at) / Fold change /veh IRGQ (11745062_a_at) / RFU FAM174B (11720279_a_at) / Fold change /veh FAM174B (11720279_a_at) / RFU TMPRSS4 (11748680_a_at) / Fold change /veh TMPRSS4 (11748680_a_at) / RFU FAM212B (11763350_a_at) / Fold change /veh FAM212B (11763350_a_at) / RFU PLEKHG5 (11743358_a_at) / Fold change /veh PLEKHG5 (11743358_a_at) / RFU ZSCAN30 (11745921_a_at) / Fold change /veh ZSCAN30 (11745921_a_at) / RFU CMKLR1 (11741424_a_at) / Fold change /veh CMKLR1 (11741424_a_at) / RFU LOC101060620 /// MAPK8IP1 (11723275_at) / Fold change /veh LOC101060620 /// MAPK8IP1 (11723275_at) / RFU SPTSSB (11747773_x_at) / Fold change /veh SPTSSB (11747773_x_at) / RFU PRSS12 (11739890_at) / Fold change /veh PRSS12 (11739890_at) / RFU BIN1 (11741810_x_at) / Fold change /veh BIN1 (11741810_x_at) / RFU WNT11 (11732464_a_at) / Fold change /veh WNT11 (11732464_a_at) / RFU C10orf10 (11716521_a_at) / Fold change /veh C10orf10 (11716521_a_at) / RFU C5orf56 (11738089_at) / Fold change /veh C5orf56 (11738089_at) / RFU CYB561 (11721691_x_at) / Fold change /veh CYB561 (11721691_x_at) / RFU ANKRD19P (11752326_a_at) / Fold change /veh ANKRD19P (11752326_a_at) / RFU OR2T12 /// OR2T33 /// OR2T8 (11738714_s_at) / Fold change /veh OR2T12 /// OR2T33 /// OR2T8 (11738714_s_at) / RFU VCAN (11748164_a_at) / Fold change /veh VCAN (11748164_a_at) / RFU JSRP1 (11732532_at) / Fold change /veh JSRP1 (11732532_at) / RFU KRTAP10-11 (11738290_x_at) / Fold change /veh KRTAP10-11 (11738290_x_at) / RFU MYO3A (11730013_a_at) / Fold change /veh MYO3A (11730013_a_at) / RFU EBF3 (11725865_a_at) / Fold change /veh EBF3 (11725865_a_at) / RFU CAMK2N1 (11719241_x_at) / Fold change /veh CAMK2N1 (11719241_x_at) / RFU C5orf56 (11738088_a_at) / Fold change /veh C5orf56 (11738088_a_at) / RFU OLFML3 (11715873_a_at) / Fold change /veh OLFML3 (11715873_a_at) / RFU LOC100653217 /// NTM (11731650_a_at) / Fold change /veh LOC100653217 /// NTM (11731650_a_at) / RFU MAPK11 (11762145_a_at) / Fold change /veh MAPK11 (11762145_a_at) / RFU FIZ1 (11724087_x_at) / Fold change /veh FIZ1 (11724087_x_at) / RFU OASL (11726364_x_at) / Fold change /veh OASL (11726364_x_at) / RFU SOX15 (11748057_x_at) / Fold change /veh SOX15 (11748057_x_at) / RFU CD79A (11719716_a_at) / Fold change /veh CD79A (11719716_a_at) / RFU HIST1H1D (11736915_at) / Fold change /veh HIST1H1D (11736915_at) / RFU CASKIN2 (11723855_a_at) / Fold change /veh CASKIN2 (11723855_a_at) / RFU LOC730098 (11760151_x_at) / Fold change /veh LOC730098 (11760151_x_at) / RFU OR4N2 (11742367_at) / Fold change /veh OR4N2 (11742367_at) / RFU PRRT2 (11749266_a_at) / Fold change /veh PRRT2 (11749266_a_at) / RFU SNX32 (11753110_a_at) / Fold change /veh SNX32 (11753110_a_at) / RFU CDHR5 (11726645_a_at) / Fold change /veh CDHR5 (11726645_a_at) / RFU RCAN1 (11760418_a_at) / Fold change /veh RCAN1 (11760418_a_at) / RFU FAM167A (11723789_a_at) / Fold change /veh FAM167A (11723789_a_at) / RFU FAM26E (11764081_at) / Fold change /veh FAM26E (11764081_at) / RFU ISYNA1 (11749810_s_at) / Fold change /veh ISYNA1 (11749810_s_at) / RFU ACY1 (11761880_at) / Fold change /veh ACY1 (11761880_at) / RFU 11764098_at / Fold change /veh 11764098_at / RFU SAMD14 (11745864_x_at) / Fold change /veh SAMD14 (11745864_x_at) / RFU NPB (11741838_a_at) / Fold change /veh NPB (11741838_a_at) / RFU TMPRSS6 (11731388_a_at) / Fold change /veh TMPRSS6 (11731388_a_at) / RFU KRTAP10-2 (11738614_at) / Fold change /veh KRTAP10-2 (11738614_at) / RFU ARHGAP8 /// PRR5-ARHGAP8 (11727945_x_at) / Fold change /veh ARHGAP8 /// PRR5-ARHGAP8 (11727945_x_at) / RFU KRTAP5-7 /// NADSYN1 (11734609_at) / Fold change /veh KRTAP5-7 /// NADSYN1 (11734609_at) / RFU RASL12 (11751679_a_at) / Fold change /veh RASL12 (11751679_a_at) / RFU CDKN2B (11736163_a_at) / Fold change /veh CDKN2B (11736163_a_at) / RFU PRF1 (11729649_at) / Fold change /veh PRF1 (11729649_at) / RFU, ZNF638 /// ZNF638-IT1 / Fold change vs veh, ZNF638 /// ZNF638-IT1 / RFU, PANK3 / Fold change vs veh, PANK3 / RFU, SH3YL1 / Fold change vs veh, SH3YL1 / RFU, ZEB2 / Fold change vs veh, ZEB2 / RFU, NRIP1 / Fold change vs veh, NRIP1 / RFU, PTTG1IP / Fold change vs veh, PTTG1IP / RFU, CAPN2 / Fold change vs veh, CAPN2 / RFU, MED14 / Fold change vs veh, MED14 / RFU, SNORA58 / Fold change vs veh, SNORA58 / RFU, C1orf63 / Fold change vs veh, C1orf63 / RFU, LRRFIP1 / Fold change vs veh, LRRFIP1 / RFU, NDUFAF7 / Fold change vs veh, NDUFAF7 / RFU, SLC12A2 / Fold change vs veh, SLC12A2 / RFU, IBTK / Fold change vs veh, IBTK / RFU, ESF1 / Fold change vs veh, ESF1 / Fold change vs veh, TMEM50B / RFU, TAOK1 / Fold change vs veh, TAOK1 / RFU, ACBD3 / Fold change vs veh, ACBD3 / RFU, TMA16 / Fold change vs veh, TMA16 / RFU, RWDD3 / Fold change vs veh, RWDD3 / RFU, BCAT1 / Fold change vs veh, BCAT1 / RFU, EDEM3 / Fold change vs veh, EDEM3 / RFU, TMEM33 / Fold change vs veh, TMEM33 / RFU, WDR75 / Fold change vs veh, WDR75 / RFU, AHCTF1 / Fold change vs veh, AHCTF1 / RFU, TFRC / Fold change vs veh, TFRC / RFU, ZDHHC17 / Fold change vs veh, ZDHHC17 / RFU, NOM1 / Fold change vs veh, NOM1 / RFU, ARL8B / Fold change vs veh, ARL8B / RFU, ZBTB11 / Fold change vs veh, ZBTB11 / RFU, TAMM41 / Fold change vs veh, TAMM41 / RFU, KIAA1704 /// LOC100996395 / Fold change vs veh, KIAA1704 /// LOC100996395 / RFU, ING1 / Fold change vs veh, ING1 / RFU, TRMT61B / Fold change vs veh, TRMT61B / RFU, FUBP3 / Fold change vs veh, FUBP3 / RFU, TP53 / Fold change vs veh, TP53 / RFU, TNKS2 / Fold change vs veh, TNKS2 / RFU, ZFP14 / Fold change vs veh, ZFP14 / RFU, ACTR2 / Fold change vs veh, ACTR2 / RFU, PPP3R1 / Fold change vs veh, PPP3R1 / RFU, PIK3R1 / Fold change vs veh, PIK3R1 / RFU, HNRNPA1 / Fold change vs veh, HNRNPA1 / RFU, RNF170 / Fold change vs veh, RNF170 / RFU, ZNF28 / Fold change vs veh, ZNF28 / RFU, RNGTT / Fold change vs veh, RNGTT / RFU, OGT / Fold change vs veh, OGT / RFU, BRD1 / Fold change vs veh, BRD1 / RFU, MARS / Fold change vs veh, MARS / RFU, ZNF655 / Fold change vs veh, ZNF655 / RFU, FAHD1 / Fold change vs veh, FAHD1 / RFU, BDP1 / Fold change vs veh, BDP1 / RFU, LRRCC1 / Fold change vs veh, LRRCC1 / RFU, ARID1A / Fold change vs veh, ARID1A / RFU, ZNF146 / Fold change vs veh, ZNF146 / RFU, ZNF330 / Fold change vs veh, ZNF330 / RFU, GPN3 / Fold change vs veh, GPN3 / RFU, C9orf123 / Fold change vs veh, C9orf123 / RFU, N4BP2L2 / Fold change vs veh, N4BP2L2 / RFU, ARFIP1 / Fold change vs veh, ARFIP1 / RFU, FAM179B / Fold change vs veh, FAM179B / RFU, BCL10 / Fold change vs veh, BCL10 / RFU, UHRF1BP1L / Fold change vs veh, UHRF1BP1L / RFU, BET1 / Fold change vs veh, BET1 / RFU, CNOT2 / Fold change vs veh, CNOT2 / RFU, ZNF268 / Fold change vs veh, ZNF268 / Fold change vs veh, ZNF507 / RFU, DGCR2 / Fold change vs veh, DGCR2 / RFU, WDSUB1 / Fold change vs veh, WDSUB1 / Fold change vs veh, HSP90B1 /// MIR3652 / RFU, ADSS / Fold change vs veh, ADSS / RFU, GK / Fold change vs veh, GK / RFU, ZNF148 / Fold change vs veh, ZNF148 / RFU, TAF9 / Fold change vs veh, TAF9 / RFU, SLC1A5 / Fold change vs veh, SLC1A5 / RFU, SLMO2 / Fold change vs veh, SLMO2 / RFU, ABCC4 / Fold change vs veh, ABCC4 / RFU, LOC101060439 /// RAP1B / Fold change vs veh, LOC101060439 /// RAP1B / RFU, RFX7 / Fold change vs veh, RFX7 / RFU, GTPBP10 / Fold change vs veh, GTPBP10 / RFU, CNEP1R1 / Fold change vs veh, CNEP1R1 / RFU, BIVM-ERCC5 /// ERCC5 / Fold change vs veh, BIVM-ERCC5 /// ERCC5 / RFU, ILF3 / Fold change vs veh, ILF3 / RFU 11762660_at / Fold change /veh 11762660_at / RFU VCAN (11757783_s_at) / Fold change /veh VCAN (11757783_s_at) / RFU DDX43 (11728927_at) / Fold change /veh DDX43 (11728927_at) / RFU KRT8 (11758188_x_at) / Fold change /veh KRT8 (11758188_x_at) / RFU NKD1 (11759106_at) / Fold change /veh NKD1 (11759106_at) / RFU SRD5A1 (11742802_a_at) / Fold change /veh SRD5A1 (11742802_a_at) / RFU TPSAB1 /// TPSB2 (11721975_s_at) / Fold change /veh TPSAB1 /// TPSB2 (11721975_s_at) / RFU GSTM3 (11746129_a_at) / Fold change /veh GSTM3 (11746129_a_at) / RFU IL23R (11737362_x_at) / Fold change /veh IL23R (11737362_x_at) / RFU TMEM51 (11727254_a_at) / Fold change /veh TMEM51 (11727254_a_at) / RFU PIWIL2 (11732686_x_at) / Fold change /veh PIWIL2 (11732686_x_at) / RFU ORM1 (11744905_x_at) / Fold change /veh ORM1 (11744905_x_at) / RFU CCDC152 (11743942_at) / Fold change /veh CCDC152 (11743942_at) / RFU ECM1 (11717891_a_at) / Fold change /veh ECM1 (11717891_a_at) / RFU IL23R (11748794_a_at) / Fold change /veh IL23R (11748794_a_at) / RFU TNFAIP8L3 (11732012_x_at) / Fold change /veh TNFAIP8L3 (11732012_x_at) / RFU MBOAT4 (11741988_at) / Fold change /veh MBOAT4 (11741988_at) / RFU 11764193_at / Fold change /veh 11764193_at / RFU TMEM53 (11763286_at) / Fold change /veh TMEM53 (11763286_at) / RFU MAGEB2 (11727129_at) / Fold change /veh MAGEB2 (11727129_at) / RFU TMEM200A (11744735_a_at) / Fold change /veh TMEM200A (11744735_a_at) / RFU CCDC152 (11751479_a_at) / Fold change /veh CCDC152 (11751479_a_at) / RFU FAM211A (11726209_a_at) / Fold change /veh FAM211A (11726209_a_at) / RFU RGS16 (11746705_a_at) / Fold change /veh RGS16 (11746705_a_at) / RFU VCAN (11755009_s_at) / Fold change /veh VCAN (11755009_s_at) / RFU RHOB (11743442_s_at) / Fold change /veh RHOB (11743442_s_at) / RFU RGS16 (11720943_a_at) / Fold change /veh RGS16 (11720943_a_at) / RFU RGS16 (11720944_at) / Fold change /veh RGS16 (11720944_at) / RFU, VPS4B / Fold change vs veh, VPS4B / RFU, CREB1 / Fold change vs veh, CREB1 / RFU, DNAJC13 / Fold change vs veh, DNAJC13 / RFU, GNAQ / Fold change vs veh, GNAQ / RFU, CDK5R1 / Fold change vs veh, CDK5R1 / RFU, ZRANB3 / Fold change vs veh, ZRANB3 / RFU, CUL4A / Fold change vs veh, CUL4A / RFU, CCNY / Fold change vs veh, CCNY / RFU, UFL1 / Fold change vs veh, UFL1 / RFU, COG3 / Fold change vs veh, COG3 / RFU, DIAPH2 / Fold change vs veh, DIAPH2 / RFU, SKA2 / Fold change vs veh, SKA2 / RFU, AFF3 / Fold change vs veh, AFF3 / RFU, LMF1 / Fold change vs veh, LMF1 / RFU, IPO11 / Fold change vs veh, IPO11 / RFU, DFFB / Fold change vs veh, DFFB / RFU, FOXP1 / Fold change vs veh, FOXP1 / RFU, CARD8 / Fold change vs veh, CARD8 / RFU, STRN3 / Fold change vs veh, STRN3 / RFU, ADK / Fold change vs veh, ADK / RFU, RASSF2 / Fold change vs veh, RASSF2 / RFU, WIPF1 / Fold change vs veh, WIPF1 / RFU, LARP1B / Fold change vs veh, LARP1B / RFU, RASA1 / Fold change vs veh, RASA1 / RFU, RB1 / Fold change vs veh, RB1 / RFU, PPFIA1 / Fold change vs veh, PPFIA1 / RFU, MAT2A / Fold change vs veh, MAT2A / RFU, CCT5 / Fold change vs veh, CCT5 / RFU, WDR92 / Fold change vs veh, WDR92 / RFU, CUX1 / Fold change vs veh, CUX1 / RFU, TTC7A / Fold change vs veh, TTC7A / RFU, TMEM135 / Fold change vs veh, TMEM135 / RFU, DEPTOR / Fold change vs veh, DEPTOR / RFU, CPM / Fold change vs veh, CPM / RFU, DNAJB6 / Fold change vs veh, DNAJB6 / RFU, CACNA2D3 / Fold change vs veh, CACNA2D3 / RFU, DTX4 / Fold change vs veh, DTX4 / RFU, TFCP2 / Fold change vs veh, TFCP2 / RFU, GMCL1 /// GMCL1P1 / Fold change vs veh, GMCL1 /// GMCL1P1 / RFU, AEBP2 / Fold change vs veh, AEBP2 / RFU, SNHG1 /// SNORD22 /// SNORD25 /// SNORD26 /// SNORD27 /// SNORD28 /// SNORD29 /// SNORD31 / Fold change vs veh, SNHG1 /// SNORD22 /// SNORD25 /// SNORD26 /// SNORD27 /// SNORD28 /// SNORD29 /// SNORD31 / Fold change (Aza/veh), C12orf56 (ProbeSet 11735607_a_at) / Fold change (ACY-1035/veh), C12orf56 (ProbeSet 11735607_a_at) / Fold change (Aza/veh), FGFR1OP (ProbeSet 11751329_s_at) / Fold change (ACY-1035/veh), FGFR1OP (ProbeSet 11751329_s_at) / Fold change (Aza/veh), VPS36 (ProbeSet 11739960_a_at) / Fold change (ACY-1035/veh), VPS36 (ProbeSet 11739960_a_at) / RFU SYPL1 (11715823_x_at) / Fold change /veh SYPL1 (11715823_x_at) / RFU IGFBP7 (11715501_s_at) / Fold change /veh IGFBP7 (11715501_s_at) / RFU REEP3 (11722064_at) / Fold change /veh REEP3 (11722064_at) / RFU IGLL1 (11728026_x_at) / Fold change /veh IGLL1 (11728026_x_at): dose or concentration left out as unconfirmed
Conditions: ProbeSet 11741199_a_at; LIST B

Nc1ncn([C@@H]2O[C@H](CO)[C@@H](O)[C@H]2O)c(=O)n1 [azacitidine]
Fold change vs veh, LRRCC1: 0.97
